In patent US20140058103A1, “Inhibitors of PI3K-Delta and Methods of Their Use and Manufacture” (Exelixis, Inc., priority 2010, published 2014):

Each molecule was assayed against PI3K delta (Homo sapiens, UniProt O00329) (assay: Luciferase-coupled chemiluminescence kinase assay (ATP consumption, KinaseGlo)).
Sequence of PI3K delta (O00329 whole entry): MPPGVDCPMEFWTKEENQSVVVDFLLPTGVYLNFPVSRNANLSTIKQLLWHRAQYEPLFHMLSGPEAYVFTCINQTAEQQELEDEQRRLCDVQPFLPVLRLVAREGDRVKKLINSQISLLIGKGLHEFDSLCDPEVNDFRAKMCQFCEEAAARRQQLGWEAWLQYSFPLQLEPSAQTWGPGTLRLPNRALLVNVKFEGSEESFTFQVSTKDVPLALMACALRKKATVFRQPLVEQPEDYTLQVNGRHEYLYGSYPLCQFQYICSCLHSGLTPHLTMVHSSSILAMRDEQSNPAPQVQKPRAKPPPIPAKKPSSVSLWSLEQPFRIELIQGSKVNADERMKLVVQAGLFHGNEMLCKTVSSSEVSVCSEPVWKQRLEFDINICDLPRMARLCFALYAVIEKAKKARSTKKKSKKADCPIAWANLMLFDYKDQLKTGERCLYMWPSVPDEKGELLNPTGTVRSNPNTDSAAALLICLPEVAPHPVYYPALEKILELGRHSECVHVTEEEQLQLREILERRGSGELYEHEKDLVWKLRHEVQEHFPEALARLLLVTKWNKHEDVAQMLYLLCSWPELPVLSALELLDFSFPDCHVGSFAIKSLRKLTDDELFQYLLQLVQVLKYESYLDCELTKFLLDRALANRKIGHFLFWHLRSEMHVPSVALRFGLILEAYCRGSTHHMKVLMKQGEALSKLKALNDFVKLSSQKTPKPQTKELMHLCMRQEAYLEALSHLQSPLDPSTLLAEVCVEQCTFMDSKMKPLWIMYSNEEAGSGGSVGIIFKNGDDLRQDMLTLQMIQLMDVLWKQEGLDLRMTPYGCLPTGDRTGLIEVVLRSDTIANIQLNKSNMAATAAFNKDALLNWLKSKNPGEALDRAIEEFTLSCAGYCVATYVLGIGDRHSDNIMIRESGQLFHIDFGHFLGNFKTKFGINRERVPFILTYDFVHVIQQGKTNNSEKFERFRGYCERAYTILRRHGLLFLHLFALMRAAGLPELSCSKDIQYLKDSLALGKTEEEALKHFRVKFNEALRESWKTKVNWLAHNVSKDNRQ
Sequence of PI3K delta (P27986 whole entry partner): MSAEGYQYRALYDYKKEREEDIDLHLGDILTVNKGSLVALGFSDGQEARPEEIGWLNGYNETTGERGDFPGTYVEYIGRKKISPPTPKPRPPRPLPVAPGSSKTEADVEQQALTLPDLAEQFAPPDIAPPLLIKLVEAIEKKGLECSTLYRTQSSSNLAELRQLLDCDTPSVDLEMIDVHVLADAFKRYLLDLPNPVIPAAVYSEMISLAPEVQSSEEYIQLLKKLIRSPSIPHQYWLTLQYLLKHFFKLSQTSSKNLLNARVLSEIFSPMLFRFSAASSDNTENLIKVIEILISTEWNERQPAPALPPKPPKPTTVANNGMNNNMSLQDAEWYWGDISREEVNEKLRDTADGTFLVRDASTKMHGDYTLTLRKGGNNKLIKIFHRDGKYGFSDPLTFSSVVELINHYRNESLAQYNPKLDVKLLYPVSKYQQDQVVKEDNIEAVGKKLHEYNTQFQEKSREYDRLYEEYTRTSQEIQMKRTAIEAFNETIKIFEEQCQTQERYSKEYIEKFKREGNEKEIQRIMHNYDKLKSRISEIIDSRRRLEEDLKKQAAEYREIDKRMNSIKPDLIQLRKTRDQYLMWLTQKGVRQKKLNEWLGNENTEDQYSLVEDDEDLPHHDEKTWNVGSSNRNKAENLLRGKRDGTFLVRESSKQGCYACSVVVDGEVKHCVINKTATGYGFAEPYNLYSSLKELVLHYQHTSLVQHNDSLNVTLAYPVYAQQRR
Format: biochemical
How it was run: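 ATP consumption measured by KinaseGlo luciferase chemiluminescence after a 2 h reaction at ambient temperature, with ATP at or below the kinase KM. Ten inhibitor concentrations per curve; IC50 from four-parameter nonlinear regression.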
In the case of `CCn1c(-c2nnc(C3CC3)o2)nc2c(N3CCC4(CC3)C(=O)Nc3ccccc34)ncnc21` [Compound 210, 1′-[8-(5-cyclopropyl-1,3,4-oxadiazol-2-yl)-9-ethyl-9H-purin-6-yl]spiro[indole-3,4′-piperidin]-2(1H)-one], the IC50 is reported as less than 50 nM. In the case of `CCCn1cc(-c2nc3c(N4CCC5(CC4)C(=O)Nc4ccccc45)ncnc3n2C)cn1` [Compound 234, 1′-[9-methyl-8-(1-propyl-1H-pyrazol-4-yl)-9H-purin-6-yl]spiro[indole-3,4′-piperidin]-2(1H)-one], the IC50 is reported as less than 50 nM. Molecule `Cn1c(C(=O)NCC2CC2)nc2c(N3CCC4(CC3)C(=O)Cc3ccccc34)ncnc21` [Compound 120, N-(cyclopropylmethyl)-9-methyl-6-(2-oxo-2,3-dihydro-1′H-spiro[indene-1,4′-piperidin]-1′-yl)-9H-purine-8-carboxamide] has an IC50 of 50 to 250 nM. `CCn1c(-c2nnc(C(C)C)o2)nc2c(N3CCC(n4c(=O)[nH]c5ccccc54)CC3)ncnc21` [Compound 180, 1-(1-{9-ethyl-8-[5-(1-methylethyl)-1,3,4-oxadiazol-2-yl]-9H-purin-6-yl}piperidin-4-yl)-1,3-dihydro-2H-benzimidazol-2-one] was tested, and the IC50 was less than 50 nM. With `Cn1c(C(=O)NCC2CC2)nc2c(N3CCC(n4c(=O)[nH]c5ncccc54)CC3)ncnc21` [Compound 240, N-(cyclopropylmethyl)-9-methyl-6-[4-(2-oxo-2,3-dihydro-1H-imidazo[4,5-b]pyridin-1-yl)piperidin-1-yl]-9H-purine-8-carboxamide] the IC50 was 50 to 250 nM. With `Cn1c(C(=O)NCC2CC2)nc2c(N3CCC4(CC3)C(=O)Nc3c(Cl)cccc34)ncnc21` [Compound 211, 6-(7-chloro-2-oxo-1,2-dihydro-1′H-spiro[indole-3,4′-piperidin]-1′-yl)-N-(cyclopropylmethyl)-9-methyl-9H-purine-8-carboxamide] the IC50 was less than 50 nM. Molecule `Cc1nc2c(N3CCC(n4c(=O)[nH]c5ccccc54)CC3)ncnc2n1C` [Compound 81, 1-[1-(8,9-Dimethyl-9H-purin-6-yl)piperidin-4-yl]-1,3-dihydro-2H-benzimidazol-2-one] has an IC50 of 500 to 1500 nM. `CCNC(=O)c1nc2c(N3CCC4(CC3)C(=O)Nc3ccccc34)ncnc2n1CC` [Compound 219, N,9-diethyl-6-(2-oxo-1,2-dihydro-1′H-spiro[indole-3,4′-piperidin]-1′-yl)-9H-purine-8-carboxamide] gave an IC50 of less than 50 nM. `CNC(=O)c1nc2c(N3CCC(n4c(=O)[nH]c5ccccc54)CC3)ncnc2n1C` [Compound 91, N,9-dimethyl-6-[4-(2-oxo-2,3-dihydro-1H-benzimidazol-1-yl)piperidin-1-yl]-9H-purine-8-carboxamide] was tested, and the IC50 was 500 to 1500 nM. `CN(C)c1ccc(-c2nc3c(N4CCC(n5c(=O)[nH]c6ncccc65)CC4)ncnc3n2C)cn1` [Compound 365, 1-(1-{8-[6-(dimethylamino)pyridin-3-yl]-9-methyl-9H-purin-6-yl}piperidin-4-yl)-1,3-dihydro-2H-imidazo[4,5-b]pyridin-2-one] was tested, and the IC50 was less than 50 nM. `CC(C)CNC(=O)c1nc2c(N3CCC(n4c(=O)[nH]c5ccccc54)CC3)ncnc2n1C1CC1` [Compound 173, 9-cyclopropyl-N-(2-methylpropyl)-6-[4-(2-oxo-2,3-dihydro-1H-benzimidazol-1-yl)piperidin-1-yl]-9H-purine-8-carboxamide] was tested, and the IC50 was 250 to 500 nM. Molecule `CCCCNC(=O)c1nc2c(N3CCC(n4c(=O)[nH]c5ccccc54)CC3)ncnc2n1C` [Compound 45, N-butyl-9-methyl-6-[4-(2-oxo-2,3-dihydro-1H-benzimidazol-1-yl)piperidin-1-yl]-9H-purine-8-carboxamide] has an IC50 of less than 50 nM. Molecule `O=C(NCC1CC1)c1nc2c(N3CCC4(CC3)C(=O)Nc3ccccc34)ncnc2n1C1CC1` [Compound 175, 9-cyclopropyl-N-(cyclopropylmethyl)-6-(2-oxo-1,2-dihydro-1′H-spiro[indole-3,4′-piperidin]-1′-yl)-9H-purine-8-carboxamide] has an IC50 of 50 to 250 nM.
